In test [1] the test system is IV γ-MSH cardiovascular response. The experiment in a line: BIBO3304 effect on IV γ-MSH and γ-MSH6–12 cardiovascular responses. The format is in vivo, rat (Sprague Dawley).
The subject of test [2] is IV NPY cardiovascular response. Nature of the test: BIBO3304 effect on IV NPY, NPY analog and ANG II cardiovascular responses. The class given is in vivo, rat (Sprague Dawley). As to conditions: for PRE vs POST BIBO3304 pressor response, in words: IV peptide.
For test [3], the system named is NPFF receptors. As to conditions: ref [16]–[19]; cited from earlier work.
The test system of test [4] is other Y receptors. As to conditions: cited from earlier work; for Effects at other Y receptors, in words: ref [15]; for Binding to other Y receptors, in words: ref [23].
The conditions of test [5]: cited from earlier work; for Effect on central regulation of feeding behavior, in words: peripheral administration, ref [15], [45].
Test [6] in a line: IV peptide MAP and HR cardiovascular responses in urethane-anesthetized rats. The class given is in vivo, rat (Sprague Dawley). As to conditions: for Increase in MAP: IV, compare Fig. 5a with Fig. 4b; for Increase in MAP / Cardiovascular response (MAP and HR), in words: rats; for Cardiovascular response (MAP and HR), in words: IV γ-MSH 15 nmol or NPY 5 nmol.
For test [7] the following is noted: cited from earlier work.
Test [8] concerns rat Y1 receptor. Nature of the test: Rat Y1 receptor binding, competition with 125I-pPYY. As to conditions: competition with iodinated PYY; CHO cells expressing rat Y1 receptor.
Test [9] relates to Y1 receptor. The format is cell-based. As to conditions: 50 nM, HEK tsA201 cells expressing Y1 receptor and N-type VDCC; for Reduction of IBa (N-type VDCC barium current): whole-cell, 22°C, pH 7.20.
For test [10] the following is noted: ref [8], cited from earlier work.
Test [11] relates to sensory neuron-specific receptor (SNSR1). As to conditions: ref [65], [66]; cited from earlier work.
For test [12] the test system is unchanged. As to conditions: ref [65], [66]; cited from earlier work. The source holds these as a separate data set.
[13] abbreviates: central BIBO3304, summary in Discussion.
Setting [14] is: ICV BIBO3304, NPY 5 nmol IV, PRE vs POST, n = 7.
Where [15] appears, read: NPY 5 nmol IV, change from baseline, mean ± standard error.

“Also recorded” adds a separate entry of the source.

In the case of `NC(=O)NCc1ccc(CNC(=O)[C@@H](CCCN=C(N)N)NC(=O)C(c2ccccc2)c2ccccc2)cc1` [BIBO3304], in test [1] (ICV BIBO3304, IV γ-MSH, PRE vs POST, n = 7), the “Attenuation of total γ-MSH pressor response (MAP curve area, height × width)” value is recorded as greater than 60%. Further, the “Attenuation of MAP response of γ-MSH or γ-MSH6–12 (either peptide)” value in test [1] (ICV BIBO3304, several IV doses of γ-MSH and γ-MSH6–12, subsequent study) is given as greater than 50%. In addition, the “Attenuation of pressor responses of γ-MSH and γ-MSH6–12, in words” value in test [1] (IV or ICV BIBO3304, peptide IV) was “significantly attenuated the pressor responses of γ-MSH and the γ-MSH analog”. The “Reduction in total γ-MSH pressor response” value in test [1] (central BIBO3304, IV γ-MSH, summary in Discussion) stood at 75%. In [1] (setting [13]), the “Inhibition of HR response to several IV γ-MSH doses” value was roughly 50% and the “Inhibition of peak MAP response to several IV γ-MSH doses” value is roughly 50%. Further, the “Change in baseline cardiovascular parameters” value in test [1] (central or peripheral BIBO3304 alone, n = 7) is listed as “no significant changes in any baseline cardiovascular parameters”. Moreover, in test [2] (ICV BIBO3304, IV NPY agonists 5 nmol), the “Area under the MAP response curve, effect of BIBO3304, in words” value was “Only the area under the NPY MAP response curve is reduced by drug treatment”. In addition, the “Effect on IV NPY cardiovascular response, in words” value in test [2] (ICV BIBO3304, NPY 5 nmol IV) is on record as “significant decrease in the IV NPY cardiovascular response; also recorded: blood pressure responses of NPY are significantly reduced”. In test [2] (setting [14]), the “Decrease in IV NPY-induced MAP response” value was greater than 40% and the “Decrease in total NPY pressor response (MAP curve area)” value is recorded as greater than 70%. Also, the “Effect on γ-MSH6–12 and NPY-CVa MAP responses, in words” value in test [2] (ICV BIBO3304, two graded doses of either peptide IV (Fig. 5a)) is listed as “produced significant MAP reductions for both doses of either peptide”. Further, the “Effect on (D-Arg25) NPY MAP / total pressor response, in words” value in [2] (ICV or IV BIBO3304, (D-Arg25) NPY IV) was “did not change the MAP response of D-Arg25 NPY; also recorded: did not significantly affect the MAP response or total pressor response of a Y1 receptor agonist (D-Arg25) NPY; also recorded: no significant effect on D-Arg25 NPY”. For the same compound, in test [2] (IV BIBO3304, two graded doses IV (Fig. 5b)), the “Effect on γ-MSH6–12 and NPY-CVa MAP responses, in words (IV BIBO3304)” value was “significant reductions in MAP for both doses of γ-MSH6–12 and NPY-CVa”. Also, the “Effect on IV NPY-CVa cardiovascular activity, in words” value in test [2] (central or peripheral BIBO3304, NPY-CVa IV) is recorded as “IV NPY-CVa cardiovascular activity was sensitive to central or peripheral BIBO3304 administration”. Moreover, the “Reduction of IV NPY-CVa pressor response” value in test [2] (central or systemic BIBO3304, NPY-CVa 5 or 20 nM doses (so in the source) IV) is given as “up to 55%”. For the same compound, in test [3], the “Binding at NPFF receptors, in words” value is recorded as “nanomolar-binding efficacy at NPFF receptors”. Also, in test [4], the “Effects at other Y receptors, in words” value is listed as “not reported to have significant effects at other Y receptors” and the “Binding to other Y receptors, in words” value is reported as “none of these receptors shows significant binding of BIBO3304”. In addition, the “Effect on central regulation of feeding behavior, in words” value in [5] is reported as “affects central regulation of feeding behavior”.

As to `NC(N)=NCCC[C@@H](NC(=O)C(c1ccccc1)c1ccccc1)C(=O)NCc1ccc(O)cc1` [BIBP3226], the “Binding at NPFF receptors, in words” value in [3] was “nanomolar-binding efficacy at NPFF receptors”. Moreover, the “Effects at other Y receptors, in words” value in [4] is on record as “not reported to have significant effects at other Y receptors”. Moreover, the “Effect on central regulation of feeding behavior, in words” value in test [5] is reported as “affects central regulation of feeding behavior”.

Take (D-Arg25) NPY: the “PRE vs POST BIBO3304 pressor response, in words” value in test [2] (ICV or IV BIBO3304, listed as (D-Arg^25) NPY) was “not significantly different”; in test [2] (ICV or IV BIBO3304, listed as D-Arg25 NPY) it was “lack of a significant difference in the PRE and POST cardiovascular responses”.

“Des-AA10–17-cyclo-7/21[Cys7,21, Pro34] NPY [NPY-CVa]”: the “Increase in MAP” value in test [6] (mean ± standard error) turned out to be 26 ± 3 mmHg. Also, in test [4], the “Binding to other Y receptors, in words” value is recorded as “significant binding to other Y receptors”. In test [7] (ref [26]), the “Pressor activity of NPY-CVa, in words” value was “significant pressor activity”. Besides, the “Orexigenic activity, in words” value in [5] (ref [23], [26]) is given as “without orexigenic activity; also recorded: lacks Y1-like orexigenic activity”.

Consider FMRFamide, for which, in test [8], the “Competition for rat Y1 receptor binding, in words” value was “failed to bind to these receptors; also recorded: Neither γ-MSH nor FMRFamide (a model RFamide peptide) competed with iodinated PYY for binding to the rat Y1 receptors”.

Consider angiotensin II [ANG II], for which the “Peak MAP response, POST ICV BIBO3304” value in test [2] (IV ANG II 5 nmol, POST, mean ± standard error) stood at 54 ± 2 mmHg. For the same compound, in test [2] (IV ANG II 5 nmol, PRE, mean ± standard error), the “Peak MAP response, PRE ICV BIBO3304” value came to 66 ± 6 mmHg. The “PRE vs POST BIBO3304 pressor response, in words” value in test [2] (ICV or IV BIBO3304) was “not significantly different at pre and post central BIBO3304 administration”; in test [2] (ICV or IV BIBO3304, listed as AII), “not significantly different”.

With “gamma-melanocyte stimulating hormone [γ-MSH]”, the “Cardiovascular response (MAP and HR), in words” value in test [6] was “produced both pressor and cardioaccelerator effects, with no evidence of a baroreceptor-mediated bradycardia; also recorded: produces a marked pressor and tachycardia response”. Further, the “Competition for rat Y1 receptor binding, in words” value in test [8] is “failed to compete with iodinated PYY for binding to the rat Y1 receptor; also recorded: Neither γ-MSH nor FMRFamide (a model RFamide peptide) competed with iodinated PYY for binding to the rat Y1 receptors”. Moreover, in [9], the “Effect on N-type VDCC / IBa, in words” value was “does not affect Y1 receptor agonist binding capacity or signaling; also recorded: did not bind to or allosterically regulate the Y1 receptor; also recorded: neither γ-MSH nor γ-MSH6–12 affected VDCC activity; also recorded: did not produce a significant inhibition of IBa relative to control” and the “Reduction of IBa (N-type VDCC barium current)” value is reported as 3–9%. The “Rise in MAP” value in [10] (mouse models) is 38 mmHg. Moreover, the “Pressor effect in MC3-R and MC4-R knockout mice, in words” value in [10] (peripheral administration) is “these effects can be elicited following peripheral administration of γ-MSH in the MC3-R and MC4-R knockout mice”. Besides, the SNSR1 activation in test [11] is reported as roughly 40 nM. Also, the “Pressor response after forebrain CVO lesions, in words” value in test [7] (IV, forebrain CVO lesions, ref [42]) was “attenuation of the IV γ-MSH cardiovascular response”. Also, the “Rightward shift of pressor dose–response curve” value in test [7] (carotid versus femoral artery administration, ref [31]) was 10 fold. Besides, the “Mechanism of MAP and HR effects / baroreceptor reflex, in words” value in test [7] (ref [9]–[11], [33]) was “total inhibition of the baroreceptor reflex; also recorded: MAP and HR effects are due to an increase in preganglionic sympathetic drive, with no contribution of adrenal medullary catecholamine release”.

Consider neuropeptide Y [NPY], for which the “Duration of pressor response, in words” value in test [6] (IV NPY 5 nmol compared to γ-MSH, P <0.05, n = 7) is recorded as “lasted significantly longer than that of γ-MSH for a relatively similar change in peak MAP”. For the same compound, the “Cardiovascular response (MAP and HR), in words” value in test [6] was “during the mid-point of the pressor response the bradycardia reversed to a cardioaccelerator response; also recorded: produces prolonged pressor and HR responses”. Besides, in [6] (mean ± standard error), the “Increase in MAP” value stood at 41.9 ± 4 mmHg. In test [6] (setting [15]), this compound showed a Peak bradycardia response of −53 ± 18 BPM and a Peak tachycardia response of 49 ± 14 BPM. The “Baseline HR” value in test [6] (baseline of the NPY 5 nmol IV group, mean ± standard error) came out at 360 ± 11 BPM. Moreover, in test [9], the “Effect on N-type VDCC / IBa, in words” value is given as “significant decreases in N-type VDCC activity; also recorded: significantly different from the effects of γ-MSH or γ-MSH6–12” and the “Reduction of IBa (N-type VDCC barium current)” value was roughly 50%. For the same compound, in [12], the “SNSR1 binding, in words” value was “nanomolar NPY binding”.

Values taken from PMC2714906 (Endocrine, 2009).
